Experimental data: patent publication US8426420B2, “Heterocyclic pyrazole-carboxamidesas P2Y12 antagonists” (Sanofi, priority 2007, dated 2013)

Target: human P2Y12 receptor (Homo sapiens, UniProt Q9H244)
Assay: Human P2Y12 recombinant cell membrane binding assay with 33P 2MeS-ADP
Conditions: competition against 33P 2MeS-ADP, membranes of CHO cells with recombinant human P2Y12 receptor
Protocol: The ability of the compounds of the formula Ito inhibit the P2Y12 receptor can be assessed by determining the concentration of the compound of the formula I that binds to the human P2Y12 Recombinant Cell Membrane Binding Assay with 33P 2MeS-ADP.
Human P2Y12 Recombinant Cell Membrane Binding Assay
The ability of a test compound to bind to the P2Y12 receptor was evaluated in a recombinant cell membrane binding assay. In this competitive binding assay, the test compound competed against a radiolabeled agonist for binding to the P2Y12 receptor, expressed on the cell membrane. Inhibition of binding of the labeled material was measured and correlated to the amount and potency of the test compound. This binding assay is a modification of the procedure described by Takasaki, J. et. al, Mol. Pharmacol., 2001, Vol. 60, pg. 432. A membrane preparation was prepared from Chinese Hamster Ovary (CHO) cells with recombinant expression of the human P2Y12 receptor according to standard procedures as a source of P2Y12.
To a 96-well microtiterplate the following were added: a) 24 μl of assay buffer (10 mM HEPES, 138 mM NaCl, […] KCl, 12 mM NaHCO3, 1 mM EDTA-Na, 0.1% BSA, pH 7.4) b) 1 μL compound in DMSO c) 50 μL P2Y12 CHO membrane (20 μg/ml) and after 15 min at RT d) 25 μL of 1.61 nM 33P 2MeS-ADP (Perkin Elmer NEN custom synthesis, specific activity ˜2100 Ci/mmol) made in assay buffer.
After 20 min incubation at RT samples were transferred to 96-well microtiter filterplates (Millipore HTS GF/B), pre-wetted for 20 min with 300 μL of stop buffer (10 mM HEPES, 138 mM NaCl pH 7.4) and then filtered through completely with a Millipore plate vacuum. Next, wells were washed four times with 400 μl/well of stop buffer on a plate vacuum. The plate was disassembled and allowed to air dry overnight with the filter side up over night. The filter plates were snapped into adapter plates and 0.1 mL of Microscint 20 Scintillation Fluid (Perkin Elmer #6013621) was added to each well. The top of the filterplate was sealed with plastic plate covers. The sealed filterplate were incubated 2 hours at RT. A Microbeta Scintillation Counter was used to measure counts.
Compounds were diluted as 10 mM DMSO stocks and tested in a four-point, five-fold dilution series run in triplicate beginning at 10 μM, final concentration. Data were analyzed using a four-parameter curve fit with a fixed minimum and maximum experimentally defined as the average positive and negative controls on each plate.

Chain of human P2Y12 receptor (Q9H244 whole entry): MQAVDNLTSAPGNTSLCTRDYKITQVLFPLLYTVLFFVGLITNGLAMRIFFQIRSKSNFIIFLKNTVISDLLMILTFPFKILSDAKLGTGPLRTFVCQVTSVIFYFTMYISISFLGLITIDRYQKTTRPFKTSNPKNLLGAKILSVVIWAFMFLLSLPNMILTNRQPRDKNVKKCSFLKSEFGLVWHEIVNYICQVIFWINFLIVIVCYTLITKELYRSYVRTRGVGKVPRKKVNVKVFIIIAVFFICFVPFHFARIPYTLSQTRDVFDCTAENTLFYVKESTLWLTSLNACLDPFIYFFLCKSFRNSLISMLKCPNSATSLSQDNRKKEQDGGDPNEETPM

Question: Which IC50 does the source give for `CCCCOC(=O)NC1CCN(C(=O)[C@H](CCC(=O)O)NC(=O)c2cc(OCC(=O)N3CCC[C@H]3C(=O)NC3CCC3)n(-c3ccccc3)n2)CC1` [Example 102, (S)-5-(4-Butoxycarbonylamino-piperidin-1-yl)-4-({5-[2-((S)-2-cyclobutylcarbamoyl-pyrrolidin-1-yl)-2-oxo-ethoxy]-1-phenyl-1H-pyrazole-3-carbonyl}-amino)-5-oxo-pentanoic acid] here?
Answer: The IC50 was 58 nM.

Question: With `CCCOC(=O)CC[C@H](NC(=O)c1cc(OCC(=O)N2CCC[C@H]2C(=O)NC2CCC2)n(-c2ccccc2)n1)C(=O)N1CCN(C(=O)OCC)CC1` [Example 133, 4-[(S)-2-({5-[2-((S)-2-Cyclobutylcarbamoyl-pyrrolidin-1-yl)-2-oxo-ethoxy]-1-phenyl-1H-pyrazole-3-carbonyl}-amino)-4-propoxycarbonyl-butyryl]-piperazine-1-carboxylic acid ethyl ester] as the compound, how does the IC50 read?
Answer: The IC50 was 42 nM.

Question: How did the IC50 turn out when `CCOC(=O)N1CCN(C(=O)[C@H](CCNC(=O)C(C)C)NC(=O)c2cc(OCC(=O)N3CCC[C@H]3C(=O)NC3CCC3)n(-c3ccccc3)n2)CC1` [Example 100, 4-[(S)-2-({5-[2-((S)-2-Cyclobutylcarbamoyl-pyrrolidin-1-yl)-2-oxo-ethoxy]-1-phenyl-1H-pyrazole-3-carbonyl}-amino)-4-isobutyrylamino-butyryl]-piperazine-1-carboxylic acid ethyl ester] was run?
Answer: Its IC50 is 197 nM.

Question: Which IC50 does the source give for `O=C(N[C@@H](CCCCOCc1ccccc1)C(=O)N1CCN(C(=O)OC2CCC2)CC1)c1cc(OCC(=O)N2CCC[C@H]2C(=O)NC2CCC2)n(-c2ccccc2)n1` [Example 197, 4-[(S)-6-Benzyloxy-2-({5-[2-((S)-2-cyclobutylcarbamoyl-pyrrolidin-1-yl)-2-oxo-ethoxy]-1-phenyl-1H-pyrazole-3-carbonyl}-amino)-hexanoyl]-piperazine-1-carboxylic acid cyclobutyl ester] here?
Answer: The IC50 was 99 nM.

Question: With `CCCCOC(=O)N1CCN(C(=O)[C@H](CC2CCCCC2)NC(=O)c2cc(OCC(=O)N3CCC[C@H]3C(=O)NC3CCC3)n(-c3ccccc3)n2)CC1` [Example 225, 4-[(S)-2-({5-[2-((S)-2-Cyclobutylcarbamoyl-pyrrolidin-1-yl)-2-oxo-ethoxy]-1-phenyl-1H-pyrazole-3-carbonyl}-amino)-3-cyclohexyl-propionyl]-piperazine-1-carboxylic acid butyl ester] as the compound, how does the IC50 read?
Answer: Its IC50 is 136 nM.

Question: With `CCOC(=O)N1CCN(C(=O)[C@H](CCC(=O)O)NC(=O)c2cc(OCC(=O)N3CCC[C@H]3c3ccccc3)n(-c3ccccc3)n2)CC1` [Example 170, 4-[(S)-4-Carboxy-2-({5-[2-oxo-2-((S)-2-phenyl-pyrrolidin-1-yl)-ethoxy]-1-phenyl-1H-pyrazole-3-carbonyl}-amino)-butyryl]-piperazine-1-carboxylic acid ethyl ester] as the compound, how does the IC50 read?
Answer: Its IC50 is 86 nM.

Question: How did the IC50 turn out when `CCCCOC(=O)N1CCN(C(=O)[C@H](CC(F)(F)F)NC(=O)c2cc(OCC(=O)N3CCC[C@H]3C(=O)NC3CCC3)n(-c3ccccc3)n2)CC1` [Example 274, 4-[(S)-2-({5-[2-((S)-2-Cyclobutylcarbamoyl-pyrrolidin-1-yl)-2-oxo-ethoxy]-1-phenyl-1H-pyrazole-3-carbonyl}-amino)-4,4,4-trifluoro-butyryl]-piperazine-1-carboxylic acid butyl ester] was run?
Answer: The IC50 was 36 nM.

Question: For `CCOC(=O)CC[C@H](NC(=O)c1cc(OCC(=O)N2CCC[C@H]2C(=O)NC2CCC2)n(-c2cccc(F)c2)n1)C(=O)N1CCN(C(=O)OCC)CC1` [Example 140, 4-((S)-2-{[5-[2-((S)-2-Cyclobutylcarbamoyl-pyrrolidin-1-yl)-2-oxo-ethoxy]-1-(3-fluoro-phenyl)-1H-pyrazole-3-carbonyl]-amino}-4-ethoxyoxycarbonyl-butyryl)-piperazine-1-carboxylic acid ethyl ester], which IC50 is on record?
Answer: Its IC50 is 173 nM.

Question: How did the IC50 turn out when `CCOC(=O)N1CCN(C(=O)[C@H](CC(=O)O)NC(=O)c2cc(OCC(=O)N3CCC[C@H]3C(=O)NCCF)n(-c3cccc(F)c3)n2)CC1` [Example 78, 4-((S)-3-Carboxy-2-{[5-[2-((S)-2-(2-fluoroethylcarbamoyl)-pyrrolidin-1-yl)-2-oxo-ethoxy]-1-(3-fluoro-phenyl)-1H-pyrazole-3-carbonyl]-amino}-propionyl)-piperazine-1-carboxylic acid ethyl ester] was run?
Answer: Its IC50 is 190 nM.

Question: How did the IC50 turn out when `CCOC(=O)N1CCN(C(=O)[C@H](CCC(=O)O)NC(=O)c2cc(OCC(=O)N3CCC[C@H]3C(=O)NCC(F)(F)F)n(-c3ccc(F)c(F)c3)n2)CC1` [Example 85, 4-((S)-4-Carboxy-2-{[5-[2-((S)-2-(2,2,2-trifluoroethylcarbamoyl)-pyrrolidin-1-yl)-2-oxo-ethoxy]-1-(3,4-difluoro-phenyl)-1H-pyrazole-3-carbonyl]-amino}-butyryl)-piperazine-1-carboxylic acid ethyl ester] was run?
Answer: Its IC50 is 154 nM.

Question: `CCCCOC(=O)N1CCN(C(=O)[C@H](CC(C)C)NC(=O)c2cc(OCC(=O)N3CCC[C@H]3C(=O)NC3CCC3)n(-c3ccccc3)n2)CC1` [Example 226, 4-[(S)-2-({5-[2-((S)-2-Cyclobutylcarbamoyl-pyrrolidin-1-yl)-2-oxo-ethoxy]-1-phenyl-1H-pyrazole-3-carbonyl}-amino)-4-methyl-pentanoyl]-piperazine-1-carboxylic acid butyl ester] was tested. Which IC50 did it give?
Answer: The IC50 was 59 nM.

Question: Which IC50 does the source give for `CCOC(=O)N1CCN(C(=O)[C@H](CNC(=O)C2CC2)NC(=O)c2cc(OCC(=O)N3CCC[C@H]3C(=O)NC3CCC3)n(-c3ccccc3)n2)CC1` [Example 91, 4-[(S)-2-({5-[2-((S)-2-Cyclobutylcarbamoyl-pyrrolidin-1-yl)-2-oxo-ethoxy]-1-phenyl-1H-pyrazole-3-carbonyl}-amino)-3-(cyclopropanecarbonyl-amino)-propionyl]-piperazine-1-carboxylic acid ethyl ester] here?
Answer: The IC50 was 130 nM.

Question: `CCOC(=O)N1CCN(C(=O)[C@H](CNC(=O)OC)NC(=O)c2cc(OCC(=O)N3CCC[C@H]3C(=O)NC3CCC3)n(-c3ccccc3)n2)CC1` [Example 89, 4-[(S)-2-({5-[2-((S)-2-Cyclobutylcarbamoyl-pyrrolidin-1-yl)-2-oxo-ethoxy]-1-phenyl-1H-pyrazole-3-carbonyl}-amino)-3-methoxycarbonylamino-propionyl]-piperazine-1-carboxylic acid ethyl ester] was tested. Which IC50 did it give?
Answer: The IC50 was 111 nM.

Question: With `CCCCOC(=O)CC[C@H](NC(=O)c1cc(OCC(=O)N2CCC[C@H]2C(=O)NC2CCC2)n(-c2ccccc2)n1)C(=O)N1CCN(C(=O)OCC)CC1` [Example 134, 4-[(S)-2-({5-[2-((S)-2-Cyclobutylcarbamoyl-pyrrolidin-1-yl)-2-oxo-ethoxy]-1-phenyl-1H-pyrazole-3-carbonyl}-amino)-4-butoxycarbonyl-butyryl]-piperazine-1-carboxylic acid ethyl ester] as the compound, how does the IC50 read?
Answer: Its IC50 is 42 nM.

Question: Which IC50 does the source give for `CCOC(=O)N1CCN(C(=O)[C@H](CCC(=O)O)NC(=O)c2cc(OCC(=O)N3CCCC3c3cccs3)n(-c3ccccc3)n2)CC1` (stereo partly drawn) [Example 167, 4-[(S)-4-Carboxy-2-({5-[2-oxo-2-(2-thiophen-2-yl-pyrrolidin-1-yl)-ethoxy]-1-phenyl-1H-pyrazole-3-carbonyl}-amino)-butyryl]-piperazine-1-carboxylic acid ethyl ester] here?
Answer: Its IC50 is 146 nM.
